Patent publication US11078495B2, “Methods and compositions for integration defective lentiviral vectors” (The University of North Carolina at Chapel Hill, priority 2015, dated 2021)

Test system: human embryo fibroblasts (HEFs)
Assay: Normalized luciferase expression from IDLV (pTK993) in human embryo fibroblasts treated with Velcade and/or sodium butyrate
Type: cell-based
Conditions: sample i: HEFs, Velcade 25 nM for 24 hours at transduction, sodium butyrate 5 mM for 48 hours from day 19; harvested 21 days post transduction; normalized to protein content and VCN
Excerpt: FIG. 7: A short-term treatment of host cells with proteasome inhibitor (velcade) at the time of IDLV transduction results in long-term sensitivity of IDLV expression to HDAC inhibitor (sodium butyrate) treatment. A) Depiction of a conventional self-inactivating HIV-1 vector (pTK993) from which the firefly luciferase is expressed under the control of a CMV promoter. […] B) To characterize the short- and long-term effects of HDAC and proteasome inhibitors on IDLV gene expression, human embryo fibroblasts (HEFs) were transduced with IDLV carrying the firefly luciferase cDNA under the control of a CMV promoter. HEF transduction was carried out either in the absence (samples a, d, g and h) or in the presence of Velcade (25 nM) for 24 hours (samples b, e and i) or sodium butyrate (5 mM) for 48 hours (samples c and f). At day 19 post transduction, sample g was treated with Velcade (25 nM) for 24 hours, while samples h and i were treated with sodium butyrate (5 mM) for 48 hours. Cell samples were harvested at either 48 hours (samples a-c) or 21 days post-transduction and analyzed for luciferase expression, which was normalized to protein content and vector copy number per diploid cell genome (VCN). The readout of normalized luciferase expression is shown above each sample. […]

With `CC(C)C[C@H](NC(=O)[C@H](Cc1ccccc1)NC(=O)c1cnccn1)B(O)O` [Velcade] the “fold of increase in IDLV expression (normalized luciferase) relative to sample-control” value was 75 fold.
